The target of this assay is Beta-secretase 1 (Homo sapiens, UniProt P56817). Put plainly: Time-Resolved FRET Assay: A homogeneous time-resolved FRET assay was used to determine IC50 values for inhibitors of the soluble human BACE1 catalytic domain. The assay monitored the increase of 620nm fluorescence that resulted from BACE1 cleavage of an APPswedish APPswe mutant peptide FRET substrate (QSY7-EISEVNLDAEFC-Europium-amide).

Molecules are shown by their SMILES.

Beta-secretase 1, sequence (P56817 whole entry, the tested form may be a part): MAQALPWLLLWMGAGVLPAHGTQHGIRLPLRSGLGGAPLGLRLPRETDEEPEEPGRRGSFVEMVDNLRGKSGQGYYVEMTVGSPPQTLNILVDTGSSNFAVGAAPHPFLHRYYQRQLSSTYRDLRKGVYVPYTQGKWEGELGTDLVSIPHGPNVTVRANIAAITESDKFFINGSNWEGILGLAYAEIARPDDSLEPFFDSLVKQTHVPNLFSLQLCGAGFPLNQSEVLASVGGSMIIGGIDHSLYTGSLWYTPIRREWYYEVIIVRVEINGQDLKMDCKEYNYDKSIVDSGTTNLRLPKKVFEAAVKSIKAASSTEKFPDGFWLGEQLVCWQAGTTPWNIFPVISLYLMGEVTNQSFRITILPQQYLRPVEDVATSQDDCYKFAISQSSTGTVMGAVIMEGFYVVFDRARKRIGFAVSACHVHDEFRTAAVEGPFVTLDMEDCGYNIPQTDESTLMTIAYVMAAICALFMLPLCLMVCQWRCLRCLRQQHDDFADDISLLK

A word on the IC50: it is the concentration that gives 50% inhibition. The Ki is the equilibrium dissociation constant of an inhibitor or competing ligand from its target. In the case of `COc1nc(N2C[C@H]3C(=O)N(C)C(=N)N[C@@]3(c3cc(F)ccc3Cl)C2)nc(C)c1F`, the IC50 is 42 nM and the affinity corresponds to a Ki of 8.9 nM.
